Data published in patent publication US20030229132A1, “Small molecule modulators of apoptosis” (priority 2002, published 2003).

Key:
SK-OV-3 = assay: Cell viability, SK-OV-3; type: cell-based
From the text: (§1) Normal cell lines include peripheral blood lymphocytes (PBL) isolated from donated human blood, non-transformed mammary fibroblasts (MCF-10A), human mammary epithelial cells (HMEC), human umbilical vein endothelial cells (HUVEC), and human prostate epithelial cells (PREC). Transformed cell lines include cell lines from leukemia, breast, lung, ovarian, and epidermal cancers (Table 1).

caspase-3 activation = assay: Caspase-3 activation by gel filtration fractions of Apaf-1 complexes; type: biochemical; conditions: 20 μM compound, 0.15 μM cyto c; for extent of caspase-3 activation: vehicle alone 0.36
Procedure: FIG. 7 depicts activity of compounds 1-5 at low cyto c concentrations in a purified system. Apaf-1 was incubated with vehicle, cyto c, or cyto c plus 20 μM compound as indicated, and then separated on a Superose 6 gel filtration column. Individual fractions were assayed for relative Apaf-1 concentrations by capture ELISA (bar graph), or the ability to activate procaspase-3 processing in lysates (line graph). The percent of Apaf-1 in apoptosomes was determined by dividing the amount of Apaf-1 in fractions 8-11 by the total amount of Apaf-1. The extent of caspase-3 activation (given in arbitrary units) corresponds to the area under the curve for fractions 8-11 in each panel. Black bars represent fractions used for calculations.
As the compounds appeared to be acting prior to caspase activation, their effect on the oligomerization of Apaf-1 was assessed (K. Cain, D. G. Brown, C. Langlais, G. M. Cohen, J Biol Chem 274, 22686-92 (1999); K. Cain et al., J Biol Chem 275, 6067-70 (2000)). By gel filtration, Apaf-1 normally runs as a monomer of ˜140 kD (FIG. 7) (see, A. Saleh, S. M. Srinivasula, S. Acharya, R. Fishel, E. S. Alnemri, J Biol Chem 274, 17941-5 (1999)). Incubation of Apaf-1 with 5 μM cyto c induces over 90% of the Apaf-1 to form large complexes of ˜700 kD, whereas incubation with 0.15 μM cyto c concentration allowed only 22% of the Apaf-1 to assemble into complexes. However, the addition of 20 μM compound 2 or 5 at the lower cyto c concentration caused the formation of two higher molecular weight complexes: a major peak that runs at the same retention time as the complex seen at 5 μM cyto c (˜700 kD), and a minor peak that elutes in the void volume. […] To determine if the Apaf-1 complexes induced by the compounds at the lower cyto c concentration are competent for caspase activation, procaspase-9, procaspase-3, and dATP were added to fractions from the gel filtration column and assayed for caspase-3 activation. Fractions from samples that had been incubated with 5 μM cyto c strongly activated caspase-3 processing (FIG. 7, panel ii, line graph), with the maximal caspase activation corresponding to the fractions that contained the apoptosome complex. On the other hand, no fractions form the sample without cyto c activated capsase-3 processing (panel i). There was a small but measurable amount of capsase-3 activation when the cyto c concentration was reduced to 0.15 μM (panel iii). However, the extent of caspase-3 activation at the reduced level of cyto c increased approximately 4-fold when either compound 2 or 5 was added to the reaction (from 0.36 arbitrary units for the vehicle alone to 1.57 and 1.4 for compounds 2 and 5, respectively, panels iv and vi). […]

CCRF-CEM = assay: Cell viability, CCRF-CEM; type: cell-based, human; conditions: leukemia
From the text: Samples were then probed by immunoblot for (A) caspase-3 activation or (B) cleavage of PARP. (C) DNA fragmentation analysis. […] The DNA was isolated by phenol/chloroform extraction, separated on a 2% agarose gel and visualized by ethidium bromide staining. Cell viability assay.
as §1

A431 = assay: Cell viability, A431; type: cell-based; conditions: A431, epidermal
From the text: as §1

Jurkat cells = assay: PARP cleavage in Jurkat cells (immunoblot); type: cell-based, human; conditions: 50 μM compound or 1 μM staurosporin, 6 hr
Procedure: (C) DNA fragmentation analysis. […] Cell viability assay.
Compounds were then tested for their ability to induce apoptosis in live cells. The ability of the compounds to activate caspase-3 in a Jurkat cell line was first assayed. […] This same pattern was seen when we assayed for the cleavage of poly (ADP-ribose) polymerase (PARP), a cellular substrate of caspases-3 and -7 (see, D. W. Nicholson, Cell Death Differ 6, 1028-42 (1999)). Upon apoptosis, PAR-P is cleaved from a 116 kD to an 85 kD protein.

[1] = system: Jurkat cells transfected with Apaf-1 siRNA; assay: Viability of Jurkat cells transfected with Apaf-1 siRNA (MTT test); type: cell-based, human; conditions: 20 nM Apaf-1 siRNA 48 hr, then 24 hr incubation
Procedure: (A) Jurkat cells were transfected with 20 nM Apaf-1 siRNA for 48 hr and half the cells were lysed and probed with antibodies to Apaf-1, caspase-9, and caspase-3. The other half of the cells was incubated with varying concentrations of (B), compound 2 or (C), Fas ligand for 24 hr and assayed for viability by MTT test. (D) SK-OV-3 cells were transiently transfected with Apaf-1 or vector control for 24 hr and then incubated with vary concentrations of compound 2 and assayed for viability. (E) Cyto c was titrated into SK-OV-3 cell lysate in the presence of 300 μM dATP, with or without 150 nM purified Apaf-1 and 20 μM compound 2 as indicated.
In order to verify that compound 2 targets the apoptosome as a function of its cytotoxic activity, small interfering RNA (siRNA) was used to silence the expression of Apaf-1 in Jurkat cells. Sense and anti-sense oligonucleotides corresponding to nucleotides 978-998 of Apaf-1 (([…]) as reported by Lassus et al. Science 297, 1352-4. (2002)), were purchased from Dharmacon. Transfection of siRNA into Jurkat cells was accomplished using GeneSilencer (Gene Therapy Systems) according to manufacturer's instructions. There was a significant decrease in the level of expression of Apaf-1 48 hr after transfection of an Apaf-1 specific siRNA, without affecting the expression of caspases in the pathway (FIG. 5A).

MCF 10A cells = assay: Cell viability, MCF 10A; type: cell-based, human
From the text: as §1

MDA-MB-453 = assay: Cell viability, MDA-MB-453; type: cell-based; conditions: MDA-MB-453, breast
From the text: as §1

[2] = system: human umbilical vein endothelial cells (HUVEC); assay: Cell viability, HUVEC; type: cell-based; conditions: normal cell
From the text: as §1

Row | IC50 (SK-OV-3; SK-OV-3, ovarian, Apaf-1 deficient) | increase in caspase-3 activation over vehicle alone (caspase-3 activation) | extent of caspase-3 activation (caspase-3 activation) | IC50 (CCRF-CEM) | IC50 (A431) | IC50 (MDA-MB-453) | SMILES | effect on cells (SK-OV-3; SK-OV-3, deficient in Apaf-1 activity) | cleavage of PARP (Jurkat cells) | cell killing after silencing of Apaf-1 [1] | effect on cells (MCF 10A cells; MCF 10A cells, up to 50 μM) | IC50 (MCF 10A cells; MCF 10A, normal cell) | IC50 [2]
1 | > 50 µM | approximately 4 fold | 1.57 arbitrary units | 9 µM | 40 µM | > 50 µM | O=C1C(=O)N(Cc2ccc(Cl)c(Cl)c2)c2ccccc21 [Compound 2] | no effect | complete cleavage | resistance | no effect except at the highest concentration | > 50 µM | 43 µM
2 | – | approximately 4 fold | 1.4 arbitrary units | – | – | – | O=C(NCc1ccc(Cl)c(Cl)c1)OC1CCc2ccccc21 (stereo not drawn) [Compound 5] | – | limited processing | – | – | – | –
